Results taken from patent US20110150769A1, “IDENTIFICATION AND USE OF COMPOUNDS FOR TREATING PERSISTENT PAIN” (priority 2009, published 2011).

Assays:
DRG neurons = experiment: Calcium imaging of cultured DRG neurons; format: cell-based, mouse; conditions: for percentage of DRG neurons responding, WT vs MrgprA1GFP/GFP mice: comparison of WT and MrgprA1GFP/GFP mice
Description: Calcium Imaging of Cultured Dorsal Root Ganglia (DRG) Neurons
DRG neurons were plated on poly-D-lysine/laminin-coated coverslips and cultured for 24 hours. […] Briefly, neurons were loaded with Fura 2-acetomethoxy ester (Molecular Probes) for 30 min in dark at room temperature. After washing, neurons were imaged at 340/380 nm excitation to detect intracellular free calcium. All tests were performed with an experimenter blinded to the genotype.

[1] = system: small-diameter primary sensory neurons (DRG neurons); experiment: Whole-cell recordings of cultured DRG neurons (evoked action potentials); format: cell-based, mouse
Description: Whole-Cell Voltage-Clamp Recordings of Cultured DRG Neurons
Dissociated DRG neurons were plated on coverslips and cultured for 2-7 hours. For clamp recording, coverslips were perfused with extracellular solution (ECS) consisting of (in mM): NaCl 140, KCl 4, CaCl2 2, MgCl2 2, HEPES 10, Glucose 5, with pH adjusted to 7.38 using NaOH. Neurons with cell body diameters between 22 and 25 μm were recorded in the whole-cell voltage-clamp configuration with electrodes (pipette solution in mM: KCl 135, MgATP 3, Na2ATP 0.5, CaCl2 1.1, EGTA 2, Glucose 5, pH adjusted to 7.38) using an Axon 700B amplifier and the pCLAMP 9.2 software package (Axon Instruments). Electrodes were pulled (Narishige, Model pp-830) from borosilicate glass (WPI, Inc), and after filling they had resistances of 2-4 MΩ. Neurons were perfused with […] FMRFamide for 30 seconds and washed for 3 minutes. Action potentials were elicited with prolonged injections (500 ms) of a depolarizing current (200 pA) before and after FMRFamide treatment. All experiments were performed at room temperature with an experimenter blinded to the genotype.

[2] = adult mutant (Mrgpr-clusterΔ−/−) DRG neurons

| Substance | responses in DRG neurons (DRG neurons; [2]) | percentage of DRG neurons responding, WT vs MrgprA1GFP/GFP mice (DRG neurons) | responses in DRG neurons (DRG neurons; newborn Mrgpr-clusterΔ−/− mice) | firing rate ([1]; Mrgpr-deficient neurons) | number of action potentials evoked by injection of depolarizing current ([1]; WT DRG neurons, current-clamp) | cells with sensitizing effect / cells recorded ([1]; WT adult DRG neurons, cell body diameter 22 to 25 μm) | average number of action potentials after treatment ([1]; WT neurons, n=10, 500 ms, 200 pA depolarizing current, before treatment 3.6±1.6) | cells with sensitizing effect / cells recorded ([1]; neurons from Mrgpr-clusterΔ−/− mice) |
| --- | --- | --- | --- | --- | --- | --- | --- | --- |
| NPFF | no responses | did not differ significantly | few or no responses | – | – | – | – | – |
| FMRFamide | no responses | did not differ significantly | few or no responses | did not show an increase in firing rate | significant increase | 10 of 23 | 7.7±1.9 | 1 of 20 |
